Broadly, the Emax is the maximal effect, on the per cent scale that the assay sets. One may read the pKd as −log10 of the Kd, conventionally taken in molar units. Read a high pKd as a small Kd.

This is an account of results in publication PMC3676766, “New Radioligands for Describing the Molecular Pharmacology of MT1 and MT2 Melatonin Receptors” (International Journal of Molecular Sciences, 2013).

Test [1] addresses T1, hMT1 (Homo sapiens, UniProt P48039).
T1 construct: expressed in transfected cells; membranes or whole cells
In words: [35S]-GTPγS binding assay, hMT1. To be noted: for [35S]-GTPγS Emax (%) / Emax: percentage of melatonin (1 μM = 100%); for EC50: mean ± SEM, read-out: [35S]-GTPγS pEC50 (converted). The class given is biochemical. The method, then: (§1) CHO-K1 cell lines stably expressing the human MT1 or MT2 receptors were grown to confluence, harvested in PBS buffer (Gibco, Invitrogen, Saint-Aubin, France) containing 5 mM EDTA, and centrifuged at 1,000 g for 20 min (4 °C). The resulting pellet was suspended in 5 mM Tris/HCl (pH 7.4) containing 2 mM EDTA and homogenized using Kinematicapolytron. […] Protein content was determined according to Bradford using the Bio-Rad kit (Bio-Rad SA, Ivry-sur-Seine, France).
(§2) For the [^35S]-GTPγS binding assay, the membranes and compounds were diluted in the binding buffer (20 mM Hepes pH 7.4, 100 mM NaCl, 3 mM MgCl2, 3 μM GDP) in the presence of 20 μg/mL saponin in order to enhance the agonist-induced stimulation. Incubation was started by adding 0.1 nM [^35S]-GTPγS to the membranes and ligands in a final volume of 250 μL and allowed to continue for 60 min at room temperature. Non-specific binding was assessed using non-radiolabeled GTPγS (10 μM). Reactions were stopped by rapid filtration through GF/B unifilters pre-soaked with distilled water, followed by three successive washes with ice-cold buffer.
In general terms: GTPγS resists hydrolysis and so accumulates on activated G proteins.

In test [2] the target is T1, hMT1. In words: HTRF (TR-FRET) cAMP assay, CHO-K1 cells expressing hMT1. The class given is cell-based. To be noted: 5 μM forskolin; for EC50: read-out: TR-FRET-cAMP pEC50 (converted). As to the method:
(§3) Cellular cAMP production was measured using cAMP dynamic HTRF kits (Cisbio Bioassays, Bedford, MA, USA) according to the manufacturer’s instructions. CHO-K1 cells stably expressing the hMT1 or hMT2 receptor were grown to confluence, harvested in PBS buffer containing 5 mM EDTA, and centrifuged at 100× g for 10 min (4 °C). […] Next, 15 μL of cAMP-d2 conjugate and 15 μL of anti-cAMP-EuK conjugate in lysis buffer were incubated for 30 min at room temperature. […] Non-specific binding was assessed using 100 μM non-labeled cAMP. The data were analyzed using the program PRISM to yield the EC50 and Emax.
(TR-FRET usually uses a lanthanide donor and a delayed reading to cut background.)

In test [3] the target is T2, hMT2 (Homo sapiens, UniProt P49286).
T2 construct: expressed in transfected cells; membranes or whole cells
T2 sequence (P49286 1-362): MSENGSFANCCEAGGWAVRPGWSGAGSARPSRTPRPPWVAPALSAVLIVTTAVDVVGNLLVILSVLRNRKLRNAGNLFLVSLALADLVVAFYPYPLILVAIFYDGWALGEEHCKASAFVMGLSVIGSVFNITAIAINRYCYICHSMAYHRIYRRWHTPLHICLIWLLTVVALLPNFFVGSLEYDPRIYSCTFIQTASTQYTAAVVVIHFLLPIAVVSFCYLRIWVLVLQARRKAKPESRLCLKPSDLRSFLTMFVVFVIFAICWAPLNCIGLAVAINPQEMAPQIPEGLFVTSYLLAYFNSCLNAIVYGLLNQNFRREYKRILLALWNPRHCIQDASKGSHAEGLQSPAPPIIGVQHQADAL
In words: HTRF (TR-FRET) cAMP assay, CHO-K1 cells expressing hMT2. To be noted: 5 μM forskolin; for EC50 / TR-FRET-cAMP Emax (%): hMT2; for EC50: read-out: TR-FRET-cAMP pEC50 (converted). Type of test: cell-based. As to the method: as §3

Test [4] addresses T2, hMT2. In words: [35S]-GTPγS binding assay, hMT2. To be noted: for [35S]-GTPγS Emax (%) / Emax: percentage of melatonin (1 μM = 100%); for EC50: mean ± SEM, read-out: [35S]-GTPγS pEC50 (converted). The class given is biochemical. As to the method: as §1, §2
For test [5], the target named is T1, hMT1. In words: [125I]-2IMLT competition binding, CHO-K1 membranes, hMT1. To be noted: 20 pM [125I]-2IMLT, 2 h 37 °C, mean ± SEM, read-out: Affinity pKi (converted). The method, then: (§4) CHO-K1 cell lines stably expressing the human MT1 or MT2 receptors were grown to confluence, harvested in PBS buffer (Gibco, Invitrogen, Saint-Aubin, France) containing 5 mM EDTA, and centrifuged at 1,000 g for 20 min (4 °C). The resulting pellet was suspended in 5 mM Tris/HCl (pH 7.4) containing 2 mM EDTA and homogenized using Kinematicapolytron. The homogenate was then centrifuged (20,000 g, 30 min, 4 °C) and the resulting pellet suspended in 75 mM Tris/HCl (pH 7.4) containing 2 mM EDTA and 12.5 mM MgCl2. Protein content was determined according to Bradford using the Bio-Rad kit (Bio-Rad SA, Ivry-sur-Seine, France). Aliquots of membrane preparations were stored in re-suspension buffer (75 mM Tris/HCl pH 7.4, 2 mM EDTA, 12.5 mM MgCl2) at −80 °C until use.
(§5) The assays were described previously. […] The results were expressed as the inhibition constant Ki, taking into account the concentration of radioligand used in each experiment. Non-specific binding was defined using 10 μM melatonin. The reaction was stopped by rapid filtration through GF/B unifilters, followed by three successive washes with ice-cold buffer. The data were analyzed using the program PRISM (GraphPad Software Inc., San Diego, CA, USA).

For test [6], the target named is T2, hMT2. In words: [125I]-2IMLT competition binding, CHO-K1 membranes, hMT2. Conditions: for Difference in affinity MT2 versus MT1: Ki/pKi better for MT2 than for MT1; for Ki: hMT2. As to the method:
as §4, §5

Test [7] deals with standard set of receptors and a small number of enzymatic targets. In words: Standard selectivity procedure (Cerep panel). Type of test: binding. Conditions: at 10 μM, cold compounds, transporters, channels, caspase-3, EGFR kinase, PKCα.
From the text: […]

For test [8], the target named is T1, hMT1. In words: Saturation binding of iodinated radioligands, CHO-K1-hMT1 membranes. Conditions: Scatchard. The method, then: as §4
The assays were performed in 96-well plates in 250 μL binding buffer (50 mM Tris/HCl pH 7.4, 5 mM MgCl2, 1 mM EDTA, plus BSA 0.1% for [^125I]-DIV880). The membranes, hMT1 and hMT2, were used at a final concentration of 30 μg of proteins/mL for all radioactive compounds. […]
(§6) The data were analyzed using the program PRISM (GraphPad Software Inc., San Diego, CA, USA). For the saturation assay, the binding site density (Bmax) and dissociation constant for the radioligand (Kd) were calculated according to the Scatchard method.

The target of test [9] is T2, hMT2. Nature of the test: Saturation binding of iodinated radioligands, CHO-K1-hMT2 membranes. To be noted: Scatchard; for Bmax: saturation. As to the method: as §4
The assays were performed in 96-well plates in 250 μL binding buffer (50 mM Tris/HCl pH 7.4, 5 mM MgCl2, 1 mM EDTA, plus BSA 0.1% for [^125I]-DIV880). The membranes, hMT1 and hMT2, were used at a final concentration of 30 μg of proteins/mL for all radioactive compounds. For all protocols, the reaction was stopped by rapid filtration through GF/B unifilters (PEI 0.1% treated for [^125I]-DIV880), followed by three successive washes with ice-cold buffer (50 mM Tris/HCl, pH 7.4).
as §6

Where [10] appears, read: CHO-K1, read-out: TR-FRET-cAMP Emax (%), hMT1.
The mark [11] stands for this setting: CHO-K1, read-out: TR-FRET-cAMP Emax (%), hMT2.
The mark [12] stands for this setting: 20 pM [125I]-2IMLT, 2 h 37 °C, mean ± SEM, read-out: Affinity pKi (converted).
The mark [13] stands for this setting: hMT1, read-out: [35S]-GTPγS Emax (%).
[14] abbreviates: CHO-K1, hMT2, read-out: TR-FRET-cAMP Emax (%).

The structures appear in SMILES notation. “And” between values parts separate entries of the source, which are not always exact repeats. Identical values can stand only once. Like-named read-outs stand apart in the source and are kept apart here. Some results are limits rather than exact numbers.

T1 sequence (P48039 whole entry): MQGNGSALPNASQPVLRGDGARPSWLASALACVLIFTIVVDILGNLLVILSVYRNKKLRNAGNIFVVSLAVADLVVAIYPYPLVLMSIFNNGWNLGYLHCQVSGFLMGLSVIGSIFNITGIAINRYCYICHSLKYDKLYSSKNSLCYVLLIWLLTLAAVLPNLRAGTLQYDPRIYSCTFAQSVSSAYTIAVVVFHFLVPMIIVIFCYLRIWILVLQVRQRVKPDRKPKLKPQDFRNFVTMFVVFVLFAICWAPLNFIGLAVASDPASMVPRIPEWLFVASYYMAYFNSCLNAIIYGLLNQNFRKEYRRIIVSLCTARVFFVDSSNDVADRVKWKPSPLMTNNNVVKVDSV

Turning to `COc1ccc2[nH]c(I)c(CCNC(C)=O)c2c1` [2IMLT, 2-iodomelatonin, reference compound], the “[35S]-GTPγS Emax (%)” value at hMT1 [1] (hMT1) was 108 ± 3%; on hMT2 [4], 121 ± 13%. Also, the Emax at hMT1 [1] (read-out: [35S]-GTPγS Emax (%), hMT1) was above 100%; on hMT1 [2] (setting [10]), around 100%; on hMT2 [3] (setting [11]) it was around 100%.
With `COc1cc(Br)c(Cc2cc(OC)c(OC)cc2CC(=O)OC(C)(C)C)cc1OC` [DIV879, Tert-butyl 2-(2-[(2-bromo-4,5-dimethoxyphenyl)methyl]-4,5-dimethoxyphenyl) Acetate], the EC50 on hMT1 [1] (hMT1) was above 10000 nM; at hMT2 [4], 12.3 nM. The figures for the Ki on hMT1 [5] and at hMT2 [6] (setting [12]) were 562 nM and 7.24 nM, respectively. The “Difference in affinity MT2 versus MT1” value on hMT2 [6] is “at least 2 logs”. The same compound displayed an Emax on hMT2 [4] of 58 ± 2%.
As for `COc1cc(I)c(Cc2cc(OC)c(OC)cc2CC(=O)OC(C)(C)C)cc1OC` [DIV880], the EC50 at hMT1 [1] (hMT1) was 1260 nM; on hMT1 [2] (hMT1) it was above 10000 nM; on hMT2 [3] it was 16.2 nM; on hMT2 [4] it was 10.7 nM. The values for the Emax at hMT1 [1] (setting [13]), at hMT2 [3] (setting [14]) and on hMT2 [4] were 10 ± 1%, 97 ± 1% and 67 ± 8%, respectively. Further, the Ki was 832 nM at hMT1 [5]; 9.55 nM at hMT2 [6] (setting [12]); around 10 nM on hMT2 [6] (approximate range in text, read-out: affinity for MT2 (range given)). The “effect on selectivity panel targets” value in test [7] is given as “less than 20%”. Besides, the “Difference in affinity MT2 versus MT1” value at hMT2 [6] is 2 logs.
`COc1ccc2[nH]c(-c3cccc4ccccc34)c(CCNC(=O)CI)c2n1` [S70254, 2-iodo-N-2-[5-methoxy-2-(naphthalen-1-yl)-1H-pyrrolo[3,2-b]pyridine-3-yl] Acetamide]: the EC50 was 79.4 nM on hMT1 [1] (hMT1), 1450 nM on hMT1 [2] (hMT1), 33.9 nM on hMT2 [3] and 2.04 nM on hMT2 [4]. In addition, the Emax at hMT1 [1] (setting [13]) came to 15 ± 2%; at hMT1 [2] (CHO-K1, hMT1, read-out: TR-FRET-cAMP Emax (%)) it was 78 ± 12%; on hMT2 [3] (setting [14]), 73%; at hMT2 [4], 43 ± 1%. Also, the Ki is 661 nM on hMT1 [5] and 1.86 nM on hMT2 [6] (setting [12]). Further, the “effect on selectivity panel targets” value in test [7] was “less than 20%”. For the same compound, the “TR-FRET-cAMP Emax (%)” value at hMT2 [3] amounted to 76.5 ± 1%.
`COc1ccc2[nH]cc(CCNC(=O)CI)c2c1` [SD6, N-[2-(5-methoxy-1H-indol-3-yl)ethyl]iodoacetamide]: the “[35S]-GTPγS Emax (%)” value at hMT1 [1] (hMT1) is 115 ± 10%; at hMT2 [4] it was 114 ± 16%. In addition, the Emax at hMT1 [1] (setting [13]) was above 100%; on hMT1 [2] (setting [10]), around 100%; on hMT2 [3] (setting [11]) it was around 100%; at hMT2 [4] it was above 100%. Further, the figures for the “TR-FRET-cAMP Emax (%)” value at hMT1 [2] (hMT1) and on hMT2 [3] were 103 ± 10% and 103 ± 1%, respectively. In addition, the Bmax at hMT1 [8] is given as 276 fmol/mg of protein.
In the case of `COc1ccc2[nH]c([125I])c(CCNC(C)=O)c2c1` [[^125I]-2IMLT, 2-[^125I]-iodomelatonin], the Bmax is 1,998 ± 318 fmol/mg of protein at hMT2 [9]; 688 fmol/mg of protein and 688 ± 153 fmol/mg of protein on hMT1 [8].
Regarding `COc1ccc2[nH]c(-c3cccc4ccccc34)c(CCNC(=O)C[125I])c2n1` [[^125I]-S70254], the pKd at hMT2 [9] (saturation 0.01–2 nM radioligand) was determined as 9.61 ± 0.14. The Bmax on hMT2 [9] is listed as 1,778 ± 87 fmol/mg of protein.
